Values joined by “and” are separate entries in the source; they are usually repeats but may differ in a detail not shown here. Identical values can stand only once. Like-named read-outs stand apart in the source and are kept apart here.
Assays:
[1] = test system: A-549 (lung) cancer cell line; experiment: Antiproliferative assay, A-549; assay type: cell-based, human; details: read-out: Antiproliferative activity IC50 ± SEM, A-549
Procedure: (§1) Table 1 presents the median inhibitory concentration (IC50) and GI50 (mean IC50) for the four cancer cell lines.
(§2) Refer to Appendix A for additional information.
(§3) To explore the antiproliferative potential of compounds propidium iodide fluorescence assay was performed using different cell lines such as Panc-1 (pancreas cancer cell line) [Panc-1-CTC (RRID:CVCL_VQ69)], MCF-7 (breast cancer cell line) [MCF-7 (RRID:CVCL_0031)], HT-29 (colon cancer cell line) [HT-29 (RRID:CVCL_0320)] and A-549 (epithelial cancer cell line)[A-549 (RRID:CVCL_0023)], respectively. All cell lines were obtained from ATCC (American Type Cell Culture).
(§4) To calculate the total nuclear DNA, a fluorescent dye (propidium iodide, PI) is used which can attach to the DNA, thus offering a quick and precise technique. PI cannot pass through the cell membrane and its signal intensity can be considered as directly proportional to quantity of cellular DNA. Cells whose cell membranes are damaged or have changed permeability are counted as dead ones. The assay was performed by seeding the cells of different cell lines at a density of 3000-7500 cells/well (in 200 μl medium) in culture plates followed by incubation for 24 h at 37 °C in humidified 5% CO2 /95% air atmospheric conditions. The medium was removed; the compounds were added to the plates at 10 μM concentrations (in 0.1% DMSO) in triplicates, followed by incubation for 48 h. DMSO (0.1%) was used as control. After incubation, medium was removed followed by the addition of PI (25 μl, 50 μg/mL in water/medium) to each well of the plates. At -80 °C, the plates were allowed to freeze for 24 h, followed by thawing at 25 °C. A fluorometer (Polar-Star BMG Tech) was used to record the readings at excitation and emission wavelengths of 530 and 620 nm for each well. The percentage cytotoxicity of compounds was calculated using the following formula: […]

[2] = test system: MCF-7 (breast) cancer cell line; experiment: Antiproliferative assay, MCF-7; assay type: cell-based, human; details: for IC50: read-out: Antiproliferative activity IC50 ± SEM, MCF-7; for Fold more potent than erlotinib (MCF-7 IC50): MCF-7 IC50 ratio to erlotinib
Procedure: as §1, §2, §3, §4

[3] = test system: Panc-1 (pancreatic) cancer cell line; experiment: Antiproliferative assay, Panc-1; assay type: cell-based, human; details: read-out: Antiproliferative activity IC50 ± SEM, Panc-1
Procedure: as §1, §2, §3, §4

[4] = test system: HT-29 (colon) cancer cell line; experiment: Antiproliferative assay, HT-29; assay type: cell-based, human; details: read-out: Antiproliferative activity IC50 ± SEM, HT-29
Procedure: as §1, §2, §3, §4

[5] = test system: four cancer cell lines (A-549, MCF-7, Panc-1, HT-29); experiment: Antiproliferative assay, mean over the four cancer cell lines (GI50); assay type: cell-based, human; details: for IC50: mean IC50 of A-549, MCF-7, Panc-1, HT-29
Description: as §1, §2
All cell lines were obtained from ATCC (American Type Cell Culture). […]

[6] = test system: Bcl-2; experiment: Apoptotic markers assay, Bcl-2 level in A-549 cells; assay type: cell-based, human; details: for Bcl-2 level: control 5
Procedure: (§5) The Bcl-2 protein family, comprising inducer proteins (Bax) and suppressor proteins (Bcl-2), primarily regulates apoptosis.
(§6) Appendix A gives more details.
Mix all the reagents thoroughly without foaming before use. Wash the microwells twice with approximately 300 μL Wash Buffer per well with thorough aspiration of microwell contents between washes. Take caution not to scratch the surface of the microwells. After the last wash, empty the wells and tap microwell strips on absorbent pad or paper towel to remove excess Wash Buffer. Use the microwell strips immediately after washing or place upside down on a wet absorbent paper for not longer than 15 minutes. […] Add 100 μL of Sample Diluent in duplicate to all standard wells and to the blank wells. Prepare standard (1:2 dilution) in duplicate ranging from 32 ng/mL to 0.5 ng/mL. Add 100 μL of Sample Diluent, in duplicate, to the blank wells. Add 80 μL of Sample Diluent, in duplicate, to the sample wells. Add 20 μL of each Sample, in duplicate, to the designated wells. Add 50 μL of diluted biotin-conjugate to all wells, including the blank wells. Cover with a plate cover and incubate at room temperature, on a microplate shaker at 100 rpm if available, for 2 hours. Remove plate cover and empty the wells. Wash microwell strips 3 times as described in step 2. Add 100 μL of diluted Streptavidin-HRP to all wells, including the blank wells. Cover with a plate cover and incubate at room temperature, on a microplate shaker at 100 rpm if available, for 1 hour. Remove the plate cover and empty the wells. Wash microwell strips 3 times as described in step 2. Proceed to the next step. Pipette 100 μl of mixed TMB Substrate Solution to all wells, including the blanks. Incubate the microwell strips at room temperature (18° to 25°C) for about 15 minutes, if available on a rotator set at 100 rpm. Avoid direct exposure to intense light. The point, at which the substrate reaction is stopped, is often determined by the ELISA reader. Many ELISA readers record absorbance only up to 2.0 O.D. Therefore, the color development within individual microwells must be watched by the person running the assay and the substrate reaction stopped before positive wells are no longer properly detectable. Stop the enzyme reaction by quickly pipetting 100 μL of Stop Solution into each well, including the blank wells. It is important that the Stop Solution is spread quickly and uniformly throughout the microwells to completely inactivate the enzyme. Results must be read immediately after the Stop Solution is added or within one hour if the microwell strips are stored at 2 - 8°C in the dark. Read the absorbance of each microwell on a spectrophotometer using 450 nm as the primary wavelength.

[7] = test system: Bax; experiment: Apoptotic markers assay, Bax level in A-549 cells; assay type: cell-based, human; details: for Bax level: control 60; for Bax fold change: relative to untreated control
Procedure: as §5, §6
Bring all reagents, except the human Bax-α Standard, to room temperature for at least 30 minutes prior to opening. The human Bax-α Standard solution should not be left at room temperature for more than 10 minutes. All standards, controls and samples should be run in duplicate. Refer to the Assay Layout Sheet to determine the number of wells to be used and put any remaining wells with the desiccant back into the pouch and seal the ziploc. Store unused wells at 4 °C. Pipet 100 μL of Assay Buffer into the S0 (0 pg/mL standard) wells. Pipet 100 μL of Standards #1 through #6 into the appropriate wells. Pipet 100 μL of the Samples into the appropriate wells. Tap the plate gently to mix the contents. Seal the plate and incubate at room temperature on a plate shaker for 1 hour at ~500 rpm. Empty the contents of the wells and wash by adding 400 μL of wash solution to every well. Repeat the wash 4 more times for a total of 5 washes. After the final wash, empty or aspirate the wells and firmly tap the plate on a lint free paper towel to remove any remaining wash buffer. Pipet 100 μL of yellow Antibody into each well, except the Blank. Seal the plate and incubate at room temperature on a plate shaker for 1 hour at ~500 rpm. Empty the contents of the wells and wash by adding 400 μL of wash solution to every well. Repeat the wash 4 more times for a total of 5 washes. After the final wash, empty or aspirate the wells and firmly tap the plate on a lint free paper towel to remove any remaining wash buffer. Add 100 μL of blue Conjugate to each well, except the Blank. Seal the plate and incubate at room temperature on a plate shaker for 30 minutes at ~500 rpm. Empty the contents of the wells and wash by adding 400 μL of wash solution to every well. Repeat the wash 4 more times for a total of 5 washes. After the final wash, empty or aspirate the wells and firmly tap the plate on a lint free paper towel to remove any remaining wash buffer. Pipet 100 μL of Substrate Solution into each well. Incubate for 30 minutes at room temperature on a plate shaker at ~500 rpm. Pipet 100 μL Stop Solution to each well. Blank the plate reader against the Blank wells, read the optical density at 450 nm. Calculate the average net Optical Density (OD) bound for each standard and sample by subtracting the average Blank OD from the average OD for each standard and sample. Using linear graph paper, plot the Average Net OD for each standard versus Bax concentration in each standard. Approximate a straight line through the points. The concentration of Bax in the unknowns can be determined by interpolation.

[8] = test system: p53; experiment: Apoptotic markers assay, p53 level in A-549 cells; assay type: cell-based, human; details: control 65
Description: as §5
A prime example of a gene product is the p53 protein, which affects apoptosis. The potential for p53 overexpression to induce apoptosis may elucidate the frequent deactivation of p53 enzymes by cancer cells during transformation.
as §6

[9] = biological target: EGFR (Homo sapiens, UniProt P00533); experiment: EGFR-TK inhibitory assay
Procedure: To record autophosphorylation level, EGFR kinase assay was carried out on the basis of DELFIA/Time-Resolved Fluorometry. […] Each compound (10 μL) was incubated with recombinant enzyme (10 μL, 5 ng for EGFR, 1:80 dilution in 100 mM HEPES) for 10 min at 25 °C, subsequent to the addition of 5X buffer (10 μL, containing 2 mM MnCl2, 100 μM Na3VO4, 20 mM HEPES and 1 mM DTT) and ATP-MgCl2 (20 μL, containing 0.1 mM ATP and 50 mM MgCl2) and incubation for 1h. The negative and positive controls were included in each plate by the incubation of enzyme either with or without ATP-MgCl2. The liquid was removed after incubation and the plates were washed thrice using a wash buffer. The Europium-tagged antiphosphotyrosine antibody (75 μL, 400 ng) was added to each well followed by incubation of 1h and then washing of the plates using buffer. […] The autophosphorylation percentage inhibition by compounds was calculated using the following equation:
The majority of signals detected by antiphosphotyrosine antibody were from EGFR because the enzyme preparation contained low impurities.

[10] = biological target: VEGFR-2 (Homo sapiens, UniProt P35968); experiment: VEGFR-2 kinase inhibitory assay
Sequence of VEGFR-2 (P35968 20-1356): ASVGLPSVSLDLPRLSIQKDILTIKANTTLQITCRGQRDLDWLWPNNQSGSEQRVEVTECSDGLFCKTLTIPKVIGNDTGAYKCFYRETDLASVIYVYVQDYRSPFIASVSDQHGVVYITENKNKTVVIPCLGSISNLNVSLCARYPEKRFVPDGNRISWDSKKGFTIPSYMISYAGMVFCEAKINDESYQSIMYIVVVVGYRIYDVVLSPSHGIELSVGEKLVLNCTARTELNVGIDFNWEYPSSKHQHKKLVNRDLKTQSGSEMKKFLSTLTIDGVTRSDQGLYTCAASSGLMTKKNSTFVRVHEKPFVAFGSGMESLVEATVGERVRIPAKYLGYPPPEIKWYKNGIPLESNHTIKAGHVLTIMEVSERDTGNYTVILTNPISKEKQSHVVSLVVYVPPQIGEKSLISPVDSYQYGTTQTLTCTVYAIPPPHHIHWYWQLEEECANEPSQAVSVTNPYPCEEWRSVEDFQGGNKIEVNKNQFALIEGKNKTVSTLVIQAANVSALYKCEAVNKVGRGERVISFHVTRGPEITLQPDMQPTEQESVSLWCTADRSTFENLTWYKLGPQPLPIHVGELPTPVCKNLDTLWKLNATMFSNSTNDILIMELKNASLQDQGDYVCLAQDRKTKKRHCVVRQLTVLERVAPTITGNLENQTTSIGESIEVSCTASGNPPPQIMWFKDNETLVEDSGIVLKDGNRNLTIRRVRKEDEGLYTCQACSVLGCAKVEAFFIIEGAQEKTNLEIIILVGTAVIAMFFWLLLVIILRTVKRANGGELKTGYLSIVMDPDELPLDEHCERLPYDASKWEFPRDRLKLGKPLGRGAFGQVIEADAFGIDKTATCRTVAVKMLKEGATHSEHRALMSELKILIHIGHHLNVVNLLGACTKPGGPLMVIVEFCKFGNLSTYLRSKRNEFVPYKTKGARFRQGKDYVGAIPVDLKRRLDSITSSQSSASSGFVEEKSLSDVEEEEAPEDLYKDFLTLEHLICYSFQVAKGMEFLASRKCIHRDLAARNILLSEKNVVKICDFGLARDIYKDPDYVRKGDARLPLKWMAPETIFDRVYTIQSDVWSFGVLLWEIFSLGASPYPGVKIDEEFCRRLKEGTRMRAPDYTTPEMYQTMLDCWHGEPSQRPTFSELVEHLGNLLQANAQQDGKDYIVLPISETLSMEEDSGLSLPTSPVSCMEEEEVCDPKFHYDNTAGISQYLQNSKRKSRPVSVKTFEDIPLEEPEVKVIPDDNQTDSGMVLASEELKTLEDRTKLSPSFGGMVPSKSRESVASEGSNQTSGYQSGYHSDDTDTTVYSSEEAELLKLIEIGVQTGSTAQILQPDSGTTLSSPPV
Procedure: Prepare all the solutions using autoclaved, deionized water and analytical grade reagents. Prepare and store all the reagents at room temperature (unless indicated otherwise). […] The assays used an ULight-labeled peptide substrate and a Europium-W1024-labeled antiphosphotyrosine antibody. The VEGFR-2 was purchased from Carna Biosciences, Inc. (New York, USA). The 384-well plates were obtained from PerkinElmer. […] Negative control: 2.5 μL/well 4×substrate/ATP mixture and 7.5 μL 1×kinase assay buffer in 384-well plate well. […] After incubation at room temperature and dark for 60 min, 5 μL 4×stop solution was added to corresponding wells to react for 5 min and then 5 μL 4×detection mix was added to the corresponding wells of a 384-well plate. The mixture was centrifugally mixed and stayed for 60 min at room temperature for color development. The plate was read using an Envision plate reader. The inhibition rate (%) = (positive well reading-compound well reading)/(positive well reading-negative well reading)×100. The corresponding IC50 values were calculated using GraphPad Prism 5.0.

[11] = Cell viability assay (MTT) on normal cell line; details: human, MCF-10A normal mammary gland epithelial cells
Procedure: (§7) The viability of the investigated compounds was assessed using the normal human mammary gland epithelial cell line MCF-10A. After four days of incubation on MCF-10A cells with 50 µM of each examined compound, cell viability was assessed using the MTT test[46]^,[47].
(§8) The viability of 7a–o was determined using the normal human mammary gland epithelial (MCF-10A) cell line^46,[47].
(§9) MTT assay was performed to investigate the effect of the synthesized compounds on mammary epithelial cells (MCF-10A). The cells were propagated in medium consisting of Ham's F-12 medium/ Dulbecco's modified Eagle's medium (DMEM) (1:1) supplemented with 10% foetal calf serum (GIBCO, UK), 2 mM glutamine, insulin (10 μg/mL), hydrocortisone (500 ng/mL) and epidermal growth factor (20 ng/mL). Trypsin ethylenediamine tetra acetic acid (EDTA) was used to passage the cells after every 2-3 days. 96-well flat-bottomed cell culture plates were used to seed the cells at a density of 10^4 cells mL^-1. The medium was aspirated from all the wells of culture plates after 24 h followed by the addition of synthesized compounds (in 200 μL medium to yield a final concentration of 0.1% (v/v) dimethyl sulfoxide) into individual wells of the plates. Four wells were designated to a single compound. The plates were allowed to incubate at 37°C for 96 h. Afterwards, the medium was aspirated and 3-[4,5-dimethylthiazol-2-yl]-2,5-diphenyltetrazolium bromide (MTT) (0.4 mg/mL) in medium was added to each well and subsequently incubated for 3 h. The medium was aspirated and 150 μL dimethyl sulfoxide (DMSO) was added to each well. The plates were vortexed followed by the measurement of absorbance at 540 nm on a microplate reader.

[12] = test system: MCF-10A; details: 50 µM
Procedure: as §7, §8, §9

[13] = test system: EGFR^T790M; design: method as in PMID 26275028; details: cited from earlier work
[14] = test system: EGFR^L858R; design: method as in PMID 26275028; details: cited from earlier work
[15] = test system: wild-type EGFR; design: method as in PMID 26275028; details: cited from earlier work
[16] = biological target: VEGFR-2 kinase; details: read-out: VEGFR-2 kinase IC50; cited from earlier work

Compound: CCS(=O)(=O)c1ccc2[nH]nc(C(=O)N/N=C/c3ccn(C)n3)c2c1 [Compound 7o, (E)-5-(ethylsulfonyl)-N′-((1-methyl-1H-pyrazol-3-yl)methylene)-1H-indazole-3-carbohydrazide]
- IC50 ([1]; Homo sapiens, A549): 29 ± 1 nM
- IC50 ([2]; Homo sapiens, MCF7): 32 ± 1 nM
- Fold more potent than erlotinib (MCF-7 IC50) [2]: 1.25 fold
- IC50 ([3]; Homo sapiens, PANC-1): 29 ± 1 nM
- IC50 ([4]; Homo sapiens): 29 ± 1 nM
- IC50 ([5]; Homo sapiens): 30 nM
- Bcl-2 level [6]: 1.80 ± 0.001 ng/mL
- Bax level [7]: 480 ± 2 pg/mL
- Bax fold change [7]: 8 fold
- p53 level [8]: 285 ± 2 pg/mL
- IC50 ([9]; EGFR inhibition IC50 ± SEM): 76 ± 4 nM
- IC50 [10]: 31 ± 2 nM
- viability at 96 h, 50 µM [11]: 92%

Compound: (E)-5-(ethylsulfonyl)-N′-(3-methoxybenzylidene)-1H-indazole-3-carbohydrazide [Compound 7l]
- IC50 ([1]; A-549): 41 ± 3 nM
- IC50 ([2]; MCF-7): 43 ± 3 nM
- IC50 ([3]; Panc-1): 42 ± 4 nM
- IC50 [4]: 42 ± 4 nM
- Fold less potent than 7k (GI50) ([5]; GI50 ratio to 7k): 1.7 fold
- IC50 [5]: 42 nM
- Cell viability % [12]: 91%
- IC50 ([9]; read-out: EGFR inhibition IC50 ± SEM): 87 ± 5 nM
- IC50 ([10]; read-out: VEGFR-2 inhibition IC50 ± SEM, kinase assay): 45 ± 3 nM

Compound: C=CC(=O)Nc1cccc(Oc2nc(Nc3n[nH]c4ccccc34)cc(N3CCN(C)CC3)n2)c1 [Compound VIII]
- IC50 [13]: 70 nM
- IC50 [14]: 500 nM
- IC50 [15]: 1700 nM

Compound: CCS(=O)(=O)c1ccc2[nH]nc(C(=O)N/N=C/c3nc4ccccc4s3)c2c1 [Compound 7j, (E)-N′-(benzo[d]thiazol-2-ylmethylene)-5-(ethylsulfonyl)-1H-indazole-3-carbohydrazide]
- IC50 ([1]; Homo sapiens, A549): 26 ± 1 nM
- IC50 ([2]; Homo sapiens, MCF7): 28 ± 1 nM
- IC50 ([3]; Homo sapiens, PANC-1): 26 ± 1 nM
- IC50 ([4]; Homo sapiens): 27 ± 1 nM
- IC50 ([5]; Homo sapiens): 27 nM
- Bcl-2 level [6]: 1.50 ± 0.001 ng/mL
- Bax level [7]: 505 ± 3 pg/mL
- Bax fold change [7]: 8 fold and 8.5 fold
- p53 level [8]: 340 ± 2 pg/mL
- IC50 ([9]; EGFR inhibition IC50 ± SEM): 74 ± 4 nM
- IC50 [10]: 27 ± 1 nM
- viability at 96 h, 50 µM [11]: 91%

Compound: CCS(=O)(=O)c1ccc2[nH]nc(C(=O)N/N=C/c3ccc(OC)nc3)c2c1 [Compound 7k, (E)-5-(ethylsulfonyl)-N′-((6-methoxypyridin-3-yl)methylene)-1H-indazole-3-carbohydrazide]
- IC50 ([1]; Homo sapiens, A549): 24 ± 1 nM
- IC50 ([2]; Homo sapiens, MCF7): 26 ± 1 nM
- Fold more potent than erlotinib (MCF-7 IC50) [2]: 1.5 fold
- IC50 ([3]; Homo sapiens, PANC-1): 25 ± 1 nM
- IC50 ([4]; Homo sapiens): 24 ± 1 nM
- Fold more effective than erlotinib (GI50) ([5]; GI50 ratio to erlotinib): 1.3 fold
- IC50 ([5]; Homo sapiens): 25 nM
- Bcl-2 level [6]: 1.20 ± 0.001 ng/mL
- Bcl-2 fold reduction ([6]; relative to untreated control): 4.2 fold
- Bax level [7]: 540 ± 3 pg/mL
- Bax fold change [7]: 9 fold
- p53 level [8]: 371 ± 2 pg/mL
- IC50 ([9]; EGFR inhibition IC50 ± SEM): 71 ± 4 nM
- IC50 [10]: 21 ± 1 nM
- viability at 96 h, 50 µM [11]: 93%

Compound: CN(c1ccc2cn(C)nc2c1)c1ccnc(Nc2ccc(OC(F)(F)F)cc2)n1 [Compound IX]
- IC50 [16]: 12 nM

Reference: article PMC12897534, “Design, synthesis, and antiproliferative activity of new 5-ethylsulfonyl-indazole-3-carbohydrazides as dual EGFR/VEGFR-2 kinases inhibitors” (Journal of Enzyme Inhibition and Medicinal Chemistry, 2025)
